From patent US9718840B2, “Condensed 5-oxazolidinone derivative” (SUMITOMO DAINIPPON PHARMA CO., LTD., priority 2014, dated 2017)
Each block holds one compound with its values, some of them ahead of it.

Tests used:
[1] = test system: Rabbit venous thrombus models; assay: Effect of combined use with antiplatelet drug using rabbit AVST model; assay type: in vivo; conditions: alone, dose 0.67 + 1.0 mg/kg + mg/kg/h i.v.
Experimental: Rabbit venous thrombus models were prepared by a modification of the report of Wong et al. (Wong P C. et al., J. Pharmacol. Exp. Ther. 292: 351-357 (2000)). […] A tracheostomy tube was inserted to each rabbit, which was then ventilated using a respirator. For the intravenous administration of a test drug and blood collection, catheters were inserted to the right femoral vein and the right femoral artery, respectively. An arteriovenous shunt filled with saline was inserted to the carotid artery and the jugular vein. […] Also, 4-0 silk thread having a length of 5 cm was indwelled in the arteriovenous shunt. Blood was sent for 30 minutes from the carotid artery to the jugular vein via the arteriovenous shunt. The shunt was removed, and the weight of the silk thread covered with thrombus was measured. The weight of the silk thread measured before the experiment was subtracted from the measured weight, and the obtained value was used as a wet thrombus weight. One hour before the open of the arteriovenous shunt, the test drug or a vehicle was promptly intravenously administered (0.67 mL/kg) and then continuously intravenously administered (1 mL/kg/hr). The continuous injection was continued throughout the experiment. […] STA calcium chloride (manufactured by Roche Diagnostics K.K.) was added in an amount equal thereto, and the time required for coagulation was measured.

[2] = test system: Rabbit nail bleeding models; assay: Effect of combined use with antiplatelet drug using rabbit nail bleeding model; assay type: in vivo; conditions: alone, dose 0.67 + 1.0 mg/kg + mg/kg/h i.v.
Experimental: Rabbit nail bleeding models were prepared by a modification of the report of Wong et al. (Wong P C. et al., J. Thromb. Haemost. 7: 1313-1320 (2009)). Male rabbits (JW, 1.5 to 3.5 kg) were anesthetized by the inhalation of isoflurane (ISOFLU®, manufactured by DS Pharma Animal Health Co., Ltd.) (introduced anesthesia: 4%, continuous anesthesia: 2 to 3%). For the intravenous administration of a test drug or a vehicle, an indwelling needle was inserted to the auricular vein, and the test drug or the vehicle was promptly intravenously administered (0.67 mL/kg) and then continuously intravenously administered (1 mL/kg/hr). One hour after the start of administration, three posterior toenails were cut and dipped in saline heated to approximately 37° C., and the bleeding time was measured. The bleeding time was defined as a time from the cutting to the arrest of bleeding, and an average value from the three nails was used. The measurement time was 60 minutes at the maximum. If bleeding for 60 minutes or longer was confirmed, the bleeding time was regarded as 60 minutes.

[3] = test system: human plasma; assay: Ester metabolism stability test: stability in human plasma; assay type: in vitro ADME; conditions: 37° C., 20 minutes
Experimental: 198 μL of human plasma (manufactured by Cosmo Bio Inc.) was added to 2 μL of a DMSO solution containing a 100 μmol/L test substance, and the mixture was incubated at 37° C. for 20 minutes. After the incubation, the metabolic reaction was terminated by the addition of 600 μL of acetonitrile.

[4] = Ester metabolism stability test: stability in human liver; assay type: in vitro ADME; conditions: 37° C., 20 minutes, with NADPH
Experimental: A reaction solution containing 5 μL of human liver S9 (manufactured by Sekisui XenoTech, LLC, 20 mg/mL) mixed with 20 μL of 500 mmol/L Kpi (pH 7.4), 40 μL of a 5 mmol/L aqueous solution of NADPH (manufactured by Oriental Yeast Co., Ltd.), and 133 μL of ion-exchange water was added to 2 μL of a DMSO solution containing a 100 μmol/L test substance, and the mixture was incubated at 37° C. for 20 minutes. After the incubation, the metabolic reaction was terminated by the addition of 600 μL of acetonitrile.

[5] = test system: male cynomolgus monkey; assay: Cynomolgus monkey aPTT evaluation test; assay type: in vivo
Experimental: The compound of Example 7 was suspended in a 0.5% aqueous methylcellulose solution, and this suspension was orally administered at a dose of 10 mg/5 mL/kg or 30 mg/5 mL/kg to a male cynomolgus monkey fasted for 16 hours. Blood collection for aPTT evaluation was carried out before administration and 0.5, 1, 2, 4, 6, and 24 hours after administration. 0.9 mL of blood was collected using a syringe packed with 100 μL of 3.2% sodium citrate, transferred to a centrifugal tube cooled in ice, and centrifuged at 2100 g at 4° C. for 10 minutes to prepare plasma. After incubation at 37° C. for 6 minutes, an STA reagent Cephascreen (for aPTT assay; manufactured by Roche Diagnostics K.K.) was added in an amount equal to the amount of the plasma, and the mixture was further incubated for 4 minutes. STA calcium chloride (manufactured by Roche Diagnostics K.K.) was added in an amount equal to the amount of the plasma, and the time required for coagulation was measured. Blood collection for the measurement of the compound concentration was carried out 0.5, 1, 2, 4, 6, and 24 hours after administration. 1 mL of blood was collected using a syringe packed with 10 μL of Novo-Heparin Injection, transferred to a centrifugal tube cooled in ice, and centrifuged at 2100 g at 4° C. for 10 minutes to prepare plasma. 200 μL of the prepared plasma was added to a tube containing 600 μL of acetonitrile and mixed for approximately 10 seconds using a vortex mixer. Then, the concentration of the compound of Reference Example 2-6 (a value based on the free form) was measured.

[6] = Ester metabolism stability test: metabolite identification by LC-MS
Source text: The metabolites were identified using LC (LC-Nexera X2 manufactured by Shimadzu Corp.)-MS (API4000 manufactured by AB Sciex Pte Ltd.).

[7] = oral 10 mg/kg, 0 hr (before administration)
[8] = oral 30 mg/kg, 0 hr (before administration)
[9] = metabolites identified using LC-MS

Structure (SMILES): CC(=O)Oc1ccccc1C(=O)O [Aspirin]
PT (ratio) [1]: 0.99 ± 0.01 ratio
Thrombus weight [1]: 96 ± 9 mg
aPTT (ratio) [1]: 0.97 ± 0.01 ratio
Bleeding time ([2]; rabbit, maximum 60 minutes): 1087 ± 522 s
Bleeding time (fold-increase) ([2]; ratio to vehicle group average): 1.9 ± 0.9 fold-increase

Structure (SMILES): Cl.N[C@H](CF)[C@H]1CC[C@H](C(=O)N2CC[C@@H](C3CCCCC3)[C@H]2C(=O)Nc2ccc3c(c2)cc2n3C3(CCC3)OC2=O)CC1 [Example 7, (3S)-1-({trans-4-[(1S)-1-amino-2-fluoroethyl]cyclohexyl}carbonyl)-3-cyclohexyl-N-(1′-oxo-1′H-spiro[cyclobutane-1,3′-[1,3]oxazolo[3,4-a]indol]-7′-yl)-L-prolinamide hydrochloride]
Residual rate (%) Human plasma [3]: <1%
Residual rate (%) Human liver S9 [4]: 71%
aPTT [5, 7]: 23.8 ± 2.2 s
aPTT (ratio) [5, 7]: 1.00 ± 0.00 ratio
aPTT ([5]; oral 10 mg/kg, 0.5 hr): 26.9 ± 3.3 s
aPTT (ratio) ([5]; oral 10 mg/kg, 0.5 hr): 1.13 ± 0.03 ratio
aPTT ([5]; oral 10 mg/kg, 1 hr): 30.5 ± 3.0 s
aPTT (ratio) ([5]; oral 10 mg/kg, 1 hr): 1.29 ± 0.04 ratio
aPTT ([5]; oral 10 mg/kg, 2 hr): 36.5 ± 4.1 s
aPTT (ratio) ([5]; oral 10 mg/kg, 2 hr): 1.53 ± 0.07 ratio
aPTT ([5]; oral 10 mg/kg, 4 hr): 38.5 ± 3.5 s
aPTT (ratio) ([5]; oral 10 mg/kg, 4 hr): 1.62 ± 0.00 ratio
aPTT ([5]; oral 10 mg/kg, 6 hr): 37.5 ± 4.5 s
aPTT (ratio) ([5]; oral 10 mg/kg, 6 hr): 1.57 ± 0.06 ratio
aPTT ([5]; oral 10 mg/kg, 24 hr): 26.1 ± 3.2 s
aPTT (ratio) ([5]; oral 10 mg/kg, 24 hr): 1.10 ± 0.06 ratio
aPTT [5, 8]: 23.9 ± 1.6 s
aPTT (ratio) [5, 8]: 1.00 ± 0.00 ratio
aPTT ([5]; oral 30 mg/kg, 0.5 hr): 27.6 ± 3.2 s
aPTT (ratio) ([5]; oral 30 mg/kg, 0.5 hr): 1.15 ± 0.10 ratio
aPTT ([5]; oral 30 mg/kg, 1 hr): 32.8 ± 2.8 s
aPTT (ratio) ([5]; oral 30 mg/kg, 1 hr): 1.37 ± 0.03 ratio
aPTT ([5]; oral 30 mg/kg, 2 hr): 36.9 ± 0.8 s
aPTT (ratio) ([5]; oral 30 mg/kg, 2 hr): 1.55 ± 0.07 ratio
aPTT ([5]; oral 30 mg/kg, 4 hr): 39.4 ± 1.4 s
aPTT (ratio) ([5]; oral 30 mg/kg, 4 hr): 1.65 ± 0.12 ratio
aPTT ([5]; oral 30 mg/kg, 6 hr): 39.4 ± 1.5 s
aPTT (ratio) ([5]; oral 30 mg/kg, 6 hr): 1.65 ± 0.12 ratio
aPTT ([5]; oral 30 mg/kg, 24 hr): 34.0 ± 3.3 s
aPTT (ratio) ([5]; oral 30 mg/kg, 24 hr): 1.42 ± 0.05 ratio
Metabolite formed (conversion by metabolism) [6, 9]: converted to the compound of Reference Example 2-6

Structure (SMILES): CC1(C)OC(=O)c2cc3cc(NC(=O)[C@@H]4[C@H](c5ccccc5)CCN4C(=O)[C@H]4CC[C@H]([C@H](N)CF)CC4)ccc3n21.Cl [Example 19, (3S)-1-({trans-4-[(1S)-1-amino-2-fluoroethyl]cyclohexyl}carbonyl)-N-(3,3-dimethyl-1-oxo-1H-[1,3]oxazolo[3,4-a]indol-7-yl)-3-phenyl-L-prolinamide]
Residual rate (%) Human plasma [3]: 15%
Residual rate (%) Human liver S9 [4]: 93%
Metabolite formed (conversion by metabolism) [6, 9]: Reference Example 19-1

Structure (SMILES): CC1(C)OC(=O)c2cc3cc(NC(=O)[C@@H]4[C@@H](c5ccccc5)CCN4C(=O)[C@H]4CC[C@H]([C@H](N)CF)CC4)ccc3n21.Cl [Example 20, (3R)-1-({trans-4-[(1S)-1-amino-2-fluoroethyl]cyclohexyl}carbonyl)-N-(3,3-dimethyl-1-oxo-1H-[1,3]oxazolo[3,4-a]indol-7-yl)-3-phenyl-L-prolinamide]
Residual rate (%) Human plasma [3]: 11%
Residual rate (%) Human liver S9 [4]: 93%
Metabolite formed (conversion by metabolism) [6, 9]: Reference Example 20-5

Other lines, results leading:

Residual rate (%) Human plasma [3]: 14%
Residual rate (%) Human liver S9 [4]: 82%
Metabolite formed (conversion by metabolism) ([6]; human, 20 min, 1 μmol/L): Example 25
Structure (SMILES): CC1(C)OC(=O)c2cc3cc(NC(=O)[C@@H]4[C@H](N5CCCCC5)CCN4C(=O)[C@H]4CC[C@H]([C@H](N)CF)CC4)ccc3n21 [Example 15, (2S,3R)-1-({trans-4-[(1S)-1-Amino-2-fluoroethyl]cyclohexyl}carbonyl)-N-(3,3-dimethyl-1-oxo-1H-[1,3]oxazolo[3,4-a]indol-7-yl)-3-(piperidin-1-yl)pyrrolidine-2-carboxamide 2-trifluoroacetate]

Residual rate (%) Human plasma [3]: 50%
Residual rate (%) Human liver S9 [4]: >99%
Metabolite formed (conversion by metabolism) ([6]; human, 20 min, 1 μmol/L): converted to the compound of Example 23
Structure (SMILES): CC1(C)OC(=O)c2cc3cc(NC(=O)[C@@H]4[C@H](C5CCCCC5)CCN4C(=O)[C@H]4CC[C@H](CN)CC4)ccc3n21.Cl [Example 17, (3S)-1-{[trans-4-(aminomethyl)cyclohexyl]carbonyl}-3-cyclohexyl-N-(3,3-dimethyl-1-oxo-1H-[1,3]oxazolo[3,4-a]indol-7-yl)-L-prolinamide]

Residual rate (%) Human plasma [3]: 15%
Residual rate (%) Human liver S9 [4]: 78%
Metabolite formed (conversion by metabolism) ([6]; human, 20 min, 1 μmol/L): converted to the compound of Example 23
Structure (SMILES): Cl.NC[C@H]1CC[C@H](C(=O)N2CC[C@@H](C3CCCCC3)[C@H]2C(=O)Nc2ccc3c(c2)cc2n3C(CF)(CF)OC2=O)CC1 [Example 18]
